Measured values: US20200400567A1, “FUSION POLYPEPTIDE” (PEKING UNIVERSITY, priority 2017, published 2020)

Tests used:
Type in all cases: cell-based
human ADRA2A receptor [1] = system: human ADRA2A receptor
Procedure: The perfusion system was set on a microscope, and including a solution-introduced system, an imaging cell, and a suction pump. During the perfusion process, the imaging cell was placed above the objective lens of the inverted microscope, and the slide with cultured cells was placed in the cell. The perfusion experiments of different drugs were performed by controlling the switches of the different pipes of the solution-introduced system. The perfusion speed was set to one drop or so per second. In order to ensure the stability of the focal plane, the liquid level was kept constant at all times, and the flow rate of each solution was adjusted accordingly. The aspiration speed was adjusted to maintain the liquid level in the cell over the slide.
The region of interest (ROI) and background area were selected manually prior to the perfusion experiment. The exposure time was set to less than 50 ms and the acquisition frequency was 5 seconds. The solution used for the perfusion was a physiological solution 4k (pH 7.3-7.4), which was used to formulate the drug to the desired concentration. The running time of the program was set to no more than 5 min. After using 4k to balance and stabilize the cells for about 60-90 s, the cells were perfused with drug for 60 s, and then washed with 4k. The excitation light for green fluorescent protein was 488 nm, and for red fluorescent protein was 568 nm. The laser intensity was adjusted according to the working state of the laser and the expression level of the cells.
After the end of the program, the time-fluorescence intensity data sheet was exported. The background was subtracted from the ROI to get the corresponding fluorescence value Ft, and the average value of the fluorescence value before adding the drug was used as the starting fluorescence F0 to calculate
The detection of the response of the GRAB sensor to the ligand (ΔF/F0) was performed by drug perfusion. The cells were maintained in a standard physiological solution, and the formula thereof is: […]
Fluorescence imaging data was processed using ImageJ software. For the fluorescence performance of GRAB sensors in HEK293T cells and neurons, the entire cell body was selected as the data processing region. The change in the fluorescence signal was usually indicated by its relative intensity change. The background area without the expression of the sensor was first subtracted from the fluorescence signal, so as to obtain the true expression intensity of the fluorescent protein.

human ADRA2A receptor [2] = assay: Response kinetics of GRAB-NE2.2 by photolysis of NPEC-caged-NE; details: GRAB-NE2.2, 10 μM Yohimbine
Procedure: 100 μM NPEC-NE was prepared in DMSO. The photo-uncaging experiment was performed on a Nikon laser scanning confocal microscope. The light stimulation was 80% of the 405 nm laser for 76 ms, and the stimulation area was 2×2 pixel rectangle (1 pixel=0.62 μm).
By caging neurotransmitters, neurotransmitters can be quickly activated and released in a certain area, and the signal of the sensor was fast scanned by a microscope to obtain the time constant for the change in fluorescence intensity after the sensor binds to the ligand. The experiment was performed in HEK293T cells using the neurotransmitter NPEC caged NE (i.e., NPEC-NE) (FIG. 29a), 405 nm laser for activating NPEC-caged NE, and GRAB-NE2.2.

human ADRA2A receptor [3] = assay: GRAB-NE2.1 in cultured rat cortical neurons, drug perfusion; details: GRAB-NE2.1 in neurons
Procedure: Newborn Sprague-Dawley rats were used for the primary culture of rat neurons. After the skin was washed with alcohol, the head of newborn rat was dissected with surgical instruments, and the vascular membrane on the surface of the cortex was carefully removed after removing the brain. The cortical tissue was cut into pieces and placed in a 0.25% trypsin solution, and digested for 10 minutes in an incubator at 37° C. The digestion was terminated with a DMEM medium containing 5% FBS, and the cells were further isolated by slowly pipetting up and down ten times with a pipette. After standing for 5 minutes, the pellet containing the tissue debris was discarded and the upper layer solution was collected and centrifuged at 1000 rpm for 5 minutes in a centrifuge. Thereafter, the supernatant was discarded and the neurons were resuspended with the Neurobasal+B27 medium used for culturing the neurons. The density was calculated using a cell counting chamber. After that, the cells were diluted at a density of 0.5-1×10^6 cells/ml and plated on the slides coated with poly-lysine (Sigma). Primary neurons were cultured in the Neurobasal+B27 medium, and a half of the medium was exchanged every two days. […]
The optical signal changes of neurons expressing neurotransmitter sensors were detected by perfusion with a neurotransmitter solution.

human ADRA2A receptor [4] = assay: GRAB-NE2.1 in primary cultured rat cardiomyocytes, drug perfusion; details: GRAB-NE2.1 in cardiomyocytes, 1 μM Yohimbine
Text: The GRAB-NE2.1 sensor was transfected into primary cultured rat cardiomyocytes by liposomes, and the optical signal changes for the ligand binding and affinity for ligand were detected by drug perfusion.

COC(=O)[C@@H]1[C@H]2C[C@H]3c4[nH]c5ccccc5c4CCN3C[C@@H]2CC[C@@H]1O [Yohimbine]
effect of blocker on NE concentration-dependent changes (human ADRA2A receptor [1]; GRAB-NE2.0, 10 nM to 100 μM NE, 1 μM Yohimbine): completely inhibited | effect of blocker on ligand-induced NE sensor signal changes (human ADRA2A receptor [1]; GRAB-NE2.0, Yohimbine 2 μM): can inhibit | effect of blocker on NE-induced fluorescence signal (human ADRA2A receptor [1]; GRAB-NE2.1, Yohimbine 2 μM): can inhibit | effect of blocker on photolysis-induced fluorescence change (human ADRA2A receptor [2]): inhibited | effect of blocker on ligand-induced optical signal changes (human ADRA2A receptor [3]): can inhibit | effect of blocker on NE reaction (human ADRA2A receptor [4]): can inhibit
